Structures are written as SMILES. Entries after “also recorded” stand apart in the source; their conditions may differ.

The experiment relates to scce-transgenic mice. Kind of experiment: Scratching behaviour (itch) in scce-transgenic mice for testing of antipruritic agents. The experiment is classed as in vivo. To be noted: scce-transgenic mice 20-21 weeks; tube feeding, 30 μl of 1 mg/ml mixture (FIG. 8A), 90 μl 7 days later (FIG. 8B); versus sucrose control solution. Here is the method:
Scratching behavior of scce-transgenic (#1010) mice. Twenty one mice, (11 transgenes, 5 females; 10 wild type litter mates, 2 females) were observed every fifth day for 45 days, starting when the mice were 5-6 weeks of age. At each observation point mice were transferred to individual cages, and episodes of scratching with hind or front paws were counted during three 5-min periods with 2.5 min lapsing from the transfer to the cage to the first counting, and between counting periods. The results for the three observation periods were pooled and the number of episodes of scratching per min calculated. […]
Transgenic mice, 18-22 weeks of age, mean weight 24.2 g, were given subcutaneous injections of either 250 μg of the glucocorticoid triamcinolone acetonide in a total volume of 100 μl on day 0, and 100 μg triamcinolone acetonide in a total volume of 100 μl on days 7, 14 and 21, or 100 μl of physiological saline at the same time points. Episodes of scratching were counted in the morning and injections were given in the afternoon. […]
Transgenic mice 20-21 weeks of age, mean weight […], were given either loratidine in a total volume of 100 μl, or 100 μl of a control solution by means of tube feeding. Episodes of scratching were counted immediately before feeding (0 hours), and then at time points as indicated. […]

Regarding `CCOC(=O)N1CCC(=C2c3ccc(Cl)cc3CCc3cccnc32)CC1` [loratidine], the “effect on itch (frequency of scratching)” value was “no significant difference in frequency of scratching; also recorded: no statistically significant antipruritic effect; also recorded: no statistically significant differences in frequency of scratching”.
